This is an account of results in patent US11173151B2, “Substituted triazole derivatives and uses thereof” (BAYER AKTIENGESELLSCHAFT, priority 2017, dated 2021).

For one experiment, the target named is T1, human V2 receptor (Homo sapiens, UniProt P30518).
T1 construct: expressed in transfected cells; host or cells: CHO K1 (ATCC) expressing firefly luciferase under a CRE-responsive promoter
Nature of the experiment: Cellular in vitro assay for determining vasopressin receptor activity, V2 receptor cell line (CHO, CRE-luciferase). The experiment is classed as cell-based. Particulars: CHO cell line transfected with human V2 receptor; [Arg8]-vasopressin at EC50 concentration, 3 hours; read-out: IC50 hV2.

In another experiment the target is T2, human V1a receptor (Homo sapiens, UniProt P37288).
T2 construct: expressed in transfected cells; host or cells: CHO K1 (ATCC), also stably transfected with a modified aequorin
Nature of the experiment: Cellular in vitro assay for determining vasopressin receptor activity, V1a receptor cell line (CHO, aequorin luminescence). Particulars: for IC50: CHO cell line transfected with human V1a receptor, [Arg]-vasopressin at EC50 concentration, read-out: IC50 hV1a; for ratio IC50 hV2/hV1a: selectivity ratio IC50 hV2 / IC50 hV1a. The experiment is classed as cell-based. In a few lines:
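IC50 from inhibition of [Arg]-vasopressin (EC50 concentration)-evoked aequorin luminescence in CHO K1 cells, with 10-min compound pretreatment.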

What is called IC50 is the concentration needed to halve the response being measured.

T2 sequence (P37288 whole entry): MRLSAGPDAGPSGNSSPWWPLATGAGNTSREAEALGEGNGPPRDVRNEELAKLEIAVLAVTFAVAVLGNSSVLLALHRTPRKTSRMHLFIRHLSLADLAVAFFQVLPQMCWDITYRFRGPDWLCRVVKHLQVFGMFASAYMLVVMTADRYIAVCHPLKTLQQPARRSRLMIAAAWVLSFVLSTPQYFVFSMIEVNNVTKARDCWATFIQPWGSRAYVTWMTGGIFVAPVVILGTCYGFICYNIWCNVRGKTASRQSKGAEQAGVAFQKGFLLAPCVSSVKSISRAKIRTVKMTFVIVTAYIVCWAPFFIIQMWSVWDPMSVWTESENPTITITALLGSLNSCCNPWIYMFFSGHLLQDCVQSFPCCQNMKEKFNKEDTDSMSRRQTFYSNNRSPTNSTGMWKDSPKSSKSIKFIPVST
T1 sequence (P30518 whole entry): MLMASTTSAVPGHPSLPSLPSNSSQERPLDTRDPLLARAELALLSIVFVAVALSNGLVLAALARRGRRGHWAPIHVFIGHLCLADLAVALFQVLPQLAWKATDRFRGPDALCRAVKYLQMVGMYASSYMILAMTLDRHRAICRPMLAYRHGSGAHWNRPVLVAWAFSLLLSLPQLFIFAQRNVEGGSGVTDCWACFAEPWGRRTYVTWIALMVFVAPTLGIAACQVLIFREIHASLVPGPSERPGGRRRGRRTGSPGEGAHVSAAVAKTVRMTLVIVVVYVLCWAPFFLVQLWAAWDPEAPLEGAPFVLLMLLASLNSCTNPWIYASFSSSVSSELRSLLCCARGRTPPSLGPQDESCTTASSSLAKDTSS

As for `NC(=O)[C@@H]1CC(F)(F)CN1C(=O)c1cccc(Cl)c1-n1cnc(Cn2nc(-c3ccc(Cl)cc3)n(C[C@H](O)C(F)(F)F)c2=O)n1` [Example 372, 1-{3-Chloro-2-[3-({3-(4-chlorophenyl)-5-oxo-4-[(2S)-3,3,3-trifluoro-2-hydroxypropyl]-4,5-dihydro-1H-1,2,4-triazol-1-yl}methyl)-1H-1,2,4-triazol-1-yl]benzoyl}-4,4-difluoro-L-prolinamide], the IC50 is 3400 nM on human V2 receptor and 52.5 nM at human V1a receptor. In addition, at human V1a receptor, the “ratio IC50 hV2/hV1a” value turned out to be 64.8.
In the same order, the values of `O=C(NC1CC1F)c1cccc(Cl)c1-n1cnc(Cn2nc(-c3ccc(Cl)cc3)n(C[C@H](O)C(F)(F)F)c2=O)n1` (stereo partly drawn) [Example 373, 3-Chloro-2-[3-({3-(4-chlorophenyl)-5-oxo-4-[(2S)-3,3,3-trifluoro-2-hydroxypropyl]-4,5-dihydro-1H-1,2,4-triazol-1-yl}methyl)-1H-1,2,4-triazol-1-yl]-N-[2-fluorocyclopropyl]benzamide] are 1030 nM, 4.75 nM and 216.8.
On to `O=C(c1cccc(Cl)c1-n1cnc(Cn2nc(-c3ccc(Cl)cc3)n(C[C@H](O)C(F)(F)F)c2=O)n1)N1CCC(F)(F)C1` [Example 374, 2-[(1-{2-Chloro-6-[(3,3-difluoropyrrolidin-1-yl)carbonyl]phenyl}-1H-1,2,4-triazol-3-yl)methyl]-5-(4-chlorophenyl)-4-[(2S)-3,3,3-trifluoro-2-hydroxypropyl]-2,4-dihydro-3H-1,2,4-triazol-3-one], for which the IC50 at human V2 receptor came to 1450 nM; at human V1a receptor, 47.5 nM. In addition, the “ratio IC50 hV2/hV1a” value at human V1a receptor came to 30.5.
As for `CC1(C)CN(C(=O)c2cccc(Cl)c2-n2cnc(Cn3nc(-c4ccc(Cl)cc4)n(C[C@H](O)C(F)(F)F)c3=O)n2)CCO1` [Example 375, 2-[(1-{2-Chloro-6-[(2,2-dimethylmorpholin-4-yl)carbonyl]phenyl}-1H-1,2,4-triazol-3-yl)methyl]-5-(4-chlorophenyl)-4-[(2S)-3,3,3-trifluoro-2-hydroxypropyl]-2,4-dihydro-3H-1,2,4-triazol-3-one], the IC50 worked out at 21000 nM at human V2 receptor and 710 nM at human V1a receptor. The “ratio IC50 hV2/hV1a” value on human V1a receptor was 29.6.
As to `O=C(NC1CC(F)(F)C1)c1cccc(Cl)c1-n1cnc(Cn2nc(-c3ccc(Cl)cc3)n(C[C@H](O)C(F)(F)F)c2=O)n1` [Example 376, 3-Chloro-2-[3-({3-(4-chlorophenyl)-5-oxo-4-[(2S)-3,3,3-trifluoro-2-hydroxypropyl]-4,5-dihydro-1H-1,2,4-triazol-1-yl}methyl)-1H-1,2,4-triazol-1-yl]-N-(3,3-difluorocyclobutyl)benzamide], the IC50 at human V2 receptor came to 570 nM. In addition, at human V1a receptor, the IC50 was found to be 73.5 nM and the “ratio IC50 hV2/hV1a” value is given as 7.8.
Regarding `O=C(c1cccc(Cl)c1-n1cnc(Cn2nc(-c3ccc(Cl)cc3)n(C[C@H](O)C(F)(F)F)c2=O)n1)N1CCCCC1` [Example 381, 5-(4-Chlorophenyl)-2-({1-[2-chloro-6-(piperidin-1-ylcarbonyl)phenyl]-1H-1,2,4-triazol-3-yl}methyl)-4-[(2S)-3,3,3-trifluoro-2-hydroxypropyl]-2,4-dihydro-3H-1,2,4-triazol-3-one], at human V2 receptor, the IC50 worked out at 2250 nM. In addition, at human V1a receptor, the IC50 came to 17 nM and the “ratio IC50 hV2/hV1a” value is reported as 132.4.
On to `O=C(c1cccc(Cl)c1-n1cnc(Cn2nc(-c3ccc(Cl)cc3)n(C[C@H](O)C(F)(F)F)c2=O)n1)N1CCOCC1` [Example 382, 2-({1-[2-Chloro-6-(morpholin-4-ylcarbonyl)phenyl]-1H-1,2,4-triazol-3-yl}methyl)-5-(4-chlorophenyl)-4-[(2S)-3,3,3-trifluoro-2-hydroxypropyl]-2,4-dihydro-3H-1,2,4-triazol-3-one], for which, on human V2 receptor, the IC50 amounted to 6250 nM. Besides, on human V1a receptor, the IC50 was found to be 78 nM and the “ratio IC50 hV2/hV1a” value is given as 80.1.
The like results for `O=C(c1cccc(Cl)c1-n1cnc(Cn2nc(-c3ccc(Cl)cc3)n(C[C@H](O)C(F)(F)F)c2=O)n1)N1CCC[C@H]1C(F)(F)F` [Example 383, 5-(4-Chlorophenyl)-2-{[1-(2-chloro-6-{[(2S)-2-(trifluoromethyl)pyrrolidin-1-yl]carbonyl}phenyl)-1H-1,2,4-triazol-3-yl]methyl}-4-[(2S)-3,3,3-trifluoro-2-hydroxypropyl]-2,4-dihydro-3H-1,2,4-triazol-3-one] were, in that order, 7750 nM, 435 nM and 17.8.
With `O=C(c1cccc(Cl)c1-n1cnc(Cn2nc(-c3ccc(Cl)cc3)n(C[C@H](O)C(F)(F)F)c2=O)n1)N1CCC[C@@H]1C(F)(F)F` [Example 384, 5-(4-Chlorophenyl)-2-{[1-(2-chloro-6-{[(2R)-2-(trifluoromethyl)pyrrolidin-1-yl]carbonyl}phenyl)-1H-1,2,4-triazol-3-yl]methyl}-4-[(2S)-3,3,3-trifluoro-2-hydroxypropyl]-2,4-dihydro-3H-1,2,4-triazol-3-one], at human V2 receptor, the IC50 worked out at 2000 nM. Also, at human V1a receptor, the IC50 turned out to be 111 nM and the “ratio IC50 hV2/hV1a” value amounted to 17.9.
Regarding `O=C(c1cccc(Cl)c1-n1cnc(Cn2nc(-c3ccc(Cl)cc3)n(C[C@H](O)C(F)(F)F)c2=O)n1)N1CCS(=O)(=O)CC1` [Example 385, 2-[(1-{2-Chloro-6-[(1,1-dioxidothiomorpholin-4-yl)carbonyl]phenyl}-1H-1,2,4-triazol-3-yl)methyl]-5-(4-chlorophenyl)-4-[(2S)-3,3,3-trifluoro-2-hydroxypropyl]-2,4-dihydro-3H-1,2,4-triazol-3-one], the IC50 on human V2 receptor was determined as 9550 nM. Further, at human V1a receptor, the IC50 came to 435 nM and the “ratio IC50 hV2/hV1a” value is on record as 22.0.
On to `CN(CC1CC1)C(=O)c1cccc(Cl)c1-n1cnc(Cn2nc(-c3ccc(Cl)cc3)n(C[C@H](O)C(F)(F)F)c2=O)n1` [Example 387, 3-Chloro-2-[3-({3-(4-chlorophenyl)-5-oxo-4-[(2S)-3,3,3-trifluoro-2-hydroxypropyl]-4,5-dihydro-1H-1,2,4-triazol-1-yl}methyl)-1H-1,2,4-triazol-1-yl]-N-(cyclopropylmethyl)-N-methylbenzamide], for which the IC50 at human V2 receptor came to 3400 nM. Besides, at human V1a receptor, the IC50 came out at 92.5 nM and the “ratio IC50 hV2/hV1a” value is on record as 36.8.
`CC1(NC(=O)c2cccc(Cl)c2-n2cnc(Cn3nc(-c4ccc(Cl)cc4)n(C[C@H](O)C(F)(F)F)c3=O)n2)CC1` [Example 388, 3-Chloro-2-[3-({3-(4-chlorophenyl)-5-oxo-4-[(2S)-3,3,3-trifluoro-2-hydroxypropyl]-4,5-dihydro-1H-1,2,4-triazol-1-yl}methyl)-1H-1,2,4-triazol-1-yl]-N-(1-methylcyclopropyl)benzamide]: on human V2 receptor, the IC50 was 1550 nM. Further, at human V1a receptor, the IC50 came out at 7.15 nM and the “ratio IC50 hV2/hV1a” value came to 216.8.
On to `NC(=O)[C@H]1CC(F)(F)CN1C(=O)c1cccc(Cl)c1-n1cnc(Cn2nc(-c3ccc(Cl)cc3)n(C[C@H](O)C(F)(F)F)c2=O)n1` [Example 391, 1-{3-Chloro-2-[3-({3-(4-chlorophenyl)-5-oxo-4-[(2S)-3,3,3-trifluoro-2-hydroxypropyl]-4,5-dihydro-1H-1,2,4-triazol-1-yl}methyl)-1H-1,2,4-triazol-1-yl]benzoyl}-4,4-difluoro-D-prolinamide], for which, on human V2 receptor, the IC50 amounted to 3400 nM. Moreover, at human V1a receptor, the IC50 was 52 nM and the “ratio IC50 hV2/hV1a” value worked out at 65.4.
The like results for `O=C(NCCC(F)(F)F)c1cccc(Cl)c1-n1cnc(Cn2nc(-c3ccc(Cl)cc3)n(C[C@H](O)C(F)(F)F)c2=O)n1` [Example 392, 3-Chloro-2-[3-({3-(4-chlorophenyl)-5-oxo-4-[(2S)-3,3,3-trifluoro-2-hydroxypropyl]-4,5-dihydro-1H-1,2,4-triazol-1-yl}methyl)-1H-1,2,4-triazol-1-yl]-N-(3,3,3-trifluoropropyl)benzamide] were, in that order, 280 nM, 22.5 nM and 12.4.
In the case of `O=C(NC1CC1)c1cccc(Cl)c1-n1cnc(Cn2nc(-c3ccc(Cl)cc3)n(C[C@@H](O)C(F)(F)F)c2=O)n1` [Example 393, 3-Chloro-2-[3-({3-(4-chlorophenyl)-5-oxo-4-[(2R)-3,3,3-trifluoro-2-hydroxypropyl]-4,5-dihydro-1H-1,2,4-triazol-1-yl}methyl)-1H-1,2,4-triazol-1-yl]-N-cyclopropylbenzamide], the IC50 on human V2 receptor amounted to 6100 nM. Besides, at human V1a receptor, the IC50 turned out to be 16.5 nM and the “ratio IC50 hV2/hV1a” value is recorded as 369.7.
Take `O=C(NCC1CC1)c1cccc(Cl)c1-n1cnc(Cn2nc(-c3ccc(Cl)cc3)n(C[C@@H](O)C(F)(F)F)c2=O)n1` [Example 394, 3-Chloro-2-[3-({3-(4-chlorophenyl)-5-oxo-4-[(2R)-3,3,3-trifluoro-2-hydroxypropyl]-4,5-dihydro-1H-1,2,4-triazol-1-yl}methyl)-1H-1,2,4-triazol-1-yl]-N-(cyclopropylmethyl)benzamide]: the figures for the IC50 at human V2 receptor and on human V1a receptor were 4400 nM and 295 nM, respectively. Further, the “ratio IC50 hV2/hV1a” value at human V1a receptor is listed as 14.9.
`NC(=O)[C@@H]1CC(F)(F)CN1C(=O)c1cccc(Cl)c1-n1cnc(Cn2nc(-c3ccc(Cl)cc3)n(C[C@@H](O)C(F)(F)F)c2=O)n1` [Example 396, 1-{3-Chloro-2-[3-({3-(4-chlorophenyl)-5-oxo-4-[(2R)-3,3,3-trifluoro-2-hydroxypropyl]-4,5-dihydro-1H-1,2,4-triazol-1-yl}methyl)-1H-1,2,4-triazol-1-yl]benzoyl}-4,4-difluoro-L-prolinamide]: the IC50 on human V2 receptor is 32000 nM. Moreover, at human V1a receptor, the IC50 came to 301 nM and the “ratio IC50 hV2/hV1a” value came to 106.3.
